Results from patent US20120190613A1, “ECHINOCANDIN DERIVATIVES” (priority 2009, published 2012).
Values after ≈ are worked out from the molar mass of the structure shown. Marks after values point to notes of the source that are not given here. Starred links: 1 amine or outer side, 2 acyl side, 3 side chain; linkers in the order of their positions; H or OH if unused. Positions of bridges follow the written chain, without caps; N, C: chain ends. Non-standard residues stand in square brackets, D forms with d. Residues, ends and D or L forms follow the SMILES beside them. *: point of attachment. pTerphenylCO(4''-OnC5H11) = CCCCCOc1ccc(-c2ccc(-c3ccc(C(=O)*)cc3)cc2)cc1; Orn(4R-OH,5R-OH) = O=C([C@H](C[C@@H](O)[C@@H](O)N[*:3])N[*:1])[*:2]; Tetradecanoyl(10R,12S-Me2) = CC[C@H](C)C[C@H](C)CCCCCCCCC(=O)*; hTyr(3S-OH,4S-OH) = N[C@H](C(=O)O)[C@H](O)[C@@H](O)c1ccc(O)cc1; Pro(3S-OH,4S-Me) = C[C@H]1CN[C@H](C(=O)O)[C@H]1O; Gln(3R-OH) = NC(=O)C[C@@H](O)[C@H](N)C(=O)O; Pro(3S-OH) = O=C(O)[C@H]1NCC[C@@H]1O; Hyp = O=C(O)[C@@H]1C[C@@H](O)CN1

Tests used:
C. albicans R303 = assay: Mouse candidiasis infection model, C. albicans density in kidneys; type: in vivo, female CD-1 mice; conditions: for Difference from 24-hr control / Mean log10 CFU/kidneys (±SD) / Mean log10 CFU/kidneys (±SEM): kidneys at 24 hr
Procedure: The objective of these studies was to evaluate the efficacy of test compounds in the mouse candidiasis infection model.
The strain, C. albicans R303 was transferred from frozen storage onto Sabauroud dextrose agar (SDA) plates and grown for ˜24 hr at 35° C. The inoculum was prepared by transferring colonies from the plate to phosphate buffered saline (PBS) and the concentration adjusted to 10^6 CFU/mL with the aid of a spectrophotometer. The stock was diluted 1:9 to prepare the inoculum. Prior to each run the concentration was verified using the dilution plate count method.
The female CD-1 mice used in this study were obtained from Charles River Laboratories, Portage, MI. The animals were approximately seven-weeks-old at the start of the study and weighed about 16-26 g.
In one approach, mice were made neutropenic with IP injections of cyclophosphamide (150 mg/kg in 10 mL/kg) at 4 and 1 day before inoculation. Each animal was inoculated with the appropriate concentration by injecting 0.1 mL of inoculum into a tail vein. The test compounds were administered IP at 2 hr after infection.
The kidneys were collected from four mice in control group 1 (untreated) at 2 hr after infection, and from the remaining mice in the study at 24 hr after infection. Kidneys were removed aseptically from each mouse and were combined in a sterile tube. An aliquot (2 mL) of sterile PBS was added to each tube and the contents homogenized with a tissue homogenizer (Polytron 3100). Serial dilutions of the tissue homogenates were conducted and 0.1 mL aliquots were spread on SDA plates and the plates incubated at 35° C. overnight. The CFU/kidneys were determined from colony counts. Data were analyzed using one-way ANOVA with the Tukey-Kramer Multiple Comparisons Test (GraphPad InStat version 3.06, GraphPad Software, San Diego, Calif.).
Treatments were administered at 2 hr after infection with 2.1×10^5 CFU/mL of the organism. Data are the means of four mice.
Treatments were administered at 2 hr after infection with 6.4×10^5 CFU/mL of the organism. Data are the means of four mice.
Treatments were administered at 2 hr after infection with 3.8×10^5 CFU/mL of the organism. Data are the means of four mice.
Treatments were administered at 2 hr after infection with 3.8×10^5 CFU/rnL of the organism. Data are the means of four mice.

[1] = tested on: C. albicans 104 ATCC 90028; assay: MIC by broth microdilution against C. albicans; type: cell-based
Procedure: (§1) MIC values (μg/mL) of echinocandin class compounds of the invention against various Candida and Aspergillus species were obtained as follows. Test organisms were obtained from the American Type Culture Collection (Manassas, Va.). The isolates were maintained at −80 ° C., then thawed and sub-cultured one day prior to testing (seven days for Aspergillus strains).
(§2) The mouse serum was heat-inactivated for 30 minutes at 56° C., and filtered through a 0.2 μm low protein binding filter unit prior to use.
(§3) MIC values were determined using broth microdilution. The wells of the daughter plates ultimately contained 180 μL of RPMI-1640 medium with and without mouse serum, 10 μL of drug solution, and 10 μL of yeast or fungal inoculum.
(§4) Prior to susceptibility testing, fungal isolates were removed from frozen storage, thawed at room temperature, and subcultured to Potato Dextrose Agar. The Candida strains were incubated overnight at 35° C. and the Aspergillus strains for 7 days at 25° C. Yeast colonies were inoculated into sterile saline and adjusted to the turbidity of a 0.5 McFarland standard. Inoculums from Aspergillus strains were prepared by washing the surface of an agar slant with 1 mL of sterile saline containing 0.05% of Tween 20. The resulting colloidial suspensions were adjusted to an optical density of 0.09 to 0.11 at λ 625 nm.
(§5) Both the yeast and filamentous fungus suspensions were further diluted 1:100 in RPMI-1640 medium and dispensed into sterile reservoirs and used to inoculate the daughter plates. 10 μL of standardized inoculum was delivered into each well. This yielded a final cell concentration in the daughter plates of approximately 2.5×10^3 colony-forming units/mL. Plates were incubated at 35° C. for approximately 48 hr.
(§6) Following incubation, microplates were viewed from the bottom using a plate viewer.

A. flavus 626 ATCC 64025 = assay: MIC by broth microdilution against A. flavus; type: cell-based; conditions: growth reduction of 50%
Procedure: as §1, §2, §3, §4, §5, §6

[2] = tested on: C. parapsilosis 630 ATCC 90018; assay: MIC by broth microdilution against C. parapsilosis; type: cell-based
Procedure: as §1, §2, §3, §4, §5, §6

[3] = Second run, 1 mg/kg IP 2 hr after infection
[4] = Third run, 0.5 mg/kg IP 2 hr after infection
[5] = Third run, 1.5 mg/kg IP 2 hr after infection
[6] = Third run, 4.5 mg/kg IP 2 hr after infection
[7] = Second run, 5 mg/kg IP 2 hr after infection

Structure (SMILES)	MIC ([1]; 0% mouse serum, 48 hr) [µg/mL]	MIC ([1]; 50% mouse serum, 48 hr) [µg/mL]	MIC (A. flavus 626 ATCC 64025; 0% mouse serum, 48 hr) [µg/mL]	MIC (A. flavus 626 ATCC 64025; 50% mouse serum, 48 hr) [µg/mL]	MIC ([2]; 0% mouse serum, 48 hr) [µg/mL]	MIC ([2]; 50% mouse serum, 48 hr) [µg/mL]	further results
CCCCCOc1ccc(-c2ccc(-c3ccc(C(=O)N[C@H]4C[C@@H](O)[C@@H](O)NC(=O)[C@@H]5[C@@H](O)[C@@H](C)CN5C(=O)[C@H]([C@@H](C)O)NC(=O)[C@H]([C@H](O)[C@@H](O)c5ccc(O)cc5)NC(=O)[C@@H]5C[C@@H](O)CN5C(=O)[C@H]([C@@H](C)O)NC4=O)cc3)cc2)cc1 [Anidulafungin, anidulafungin, reference compound] ({pTerphenylCO(4''-OnC5H11)}-[Orn(4R-OH,5R-OH)]T[Hyp][hTyr(3S-OH,4S-OH)]T[Pro(3S-OH,4S-Me)]; lactam 1-C)	–	–	–	–	–	–	Difference from 24-hr control (C. albicans R303; First run, 1 mg/kg IP 2 hr after infection): −1.68*** log10 CFU/kidneys; Mean log10 CFU/kidneys (±SD) (C. albicans R303; First run, 1 mg/kg IP 2 hr after infection, neutropenic mice): 3.09 ± 0.61 log10 CFU/kidneys; Difference from 24-hr control (C. albicans R303; [3]): −1.83*** log10 CFU/kidneys; Mean log10 CFU/kidneys (±SD) (C. albicans R303; [3]): 3.37 ± 0.72 log10 CFU/kidneys; Difference from 24-hr control (C. albicans R303; [4]): −0.47 ns log10 CFU/kidneys; Mean log10 CFU/kidneys (±SEM) (C. albicans R303; [4]): 4.41 ± 0.12 log10 CFU/kidneys; Difference from 24-hr control (C. albicans R303; [5]): −2.11*** log10 CFU/kidneys; Mean log10 CFU/kidneys (±SEM) (C. albicans R303; [5]): 2.77 ± 0.20 log10 CFU/kidneys; Difference from 24-hr control (C. albicans R303; [6]): −3.78*** log10 CFU/kidneys; Mean log10 CFU/kidneys (±SEM) (C. albicans R303; [6]): 1.10 ± 0.38 log10 CFU/kidneys; MIC ([1]; Candida albicans, ATCC90028, 48 h, 0% mouse serum): 0.03 µg/mL (≈ 0.0263 µM); MIC ([1]; Candida albicans, ATCC90028, 48 h, 50% mouse serum): 0.06 µg/mL (≈ 0.0526 µM); MIC (A. flavus 626 ATCC 64025; Aspergillus flavus, ATCC64025, 48 h, 0% mouse serum): < 0.015 µg/mL; MIC (A. flavus 626 ATCC 64025; Aspergillus flavus, ATCC64025, 48 h, 50% mouse serum): 0.03 µg/mL (≈ 0.0263 µM); MIC ([2]; Lodderomyces parapsilosis, ATCC90018, 48 h, 0% mouse serum): 2 µg/mL (≈ 1.75 µM); MIC ([2]; Lodderomyces parapsilosis, ATCC90018, 48 h, 50% mouse serum): > 16 µg/mL
CCC(C)CC(C)CCCCCCCCC(=O)NC1CC(O)C(NCCNC(=O)CCCCCCCOCCOCCOCCOCCOCCOCCOCCOC)NC(=O)C2C(O)CCN2C(=O)C(C(O)CCN)NC(=O)C(C(O)C(O)c2ccc(O)cc2)NC(=O)C2CC(O)CN2C(=O)C(C(C)O)NC1=O (stereo not shown) [Compound 3]	2 (≈ 1.28 µM)	>16	2 (≈ 1.28 µM)	8 (≈ 5.14 µM)	>16	>16	–
CCCCCOc1ccc(-c2ccc(-c3ccc(C(=O)NC4CC(O)C(OCCOCCOCCOCCOCCOCCOCCOC)NC(=O)C5C(O)C(C)CN5C(=O)C(C(C)O)NC(=O)C(C(O)C(O)c5ccc(O)cc5)NC(=O)C5CC(O)CN5C(=O)C(C(C)O)NC4=O)cc3)cc2)cc1 (stereo not shown) [Compound 6]	2 (≈ 1.37 µM)	8 (≈ 5.47 µM)	0.125 (≈ 0.0855 µM)	0.5 (≈ 0.342 µM)	>16	>16	–
CCC(C)CC(C)CCCCCCCCC(=O)NC1CC(O)C(OCCOCCOCCOCCOC)NC(=O)C2C(O)CCN2C(=O)C(C(O)CC(N)=O)NC(=O)C(C(O)C(O)c2ccc(O)cc2)NC(=O)C2CC(O)CN2C(=O)C(C(C)O)NC1=O (stereo not shown) [Compound 8]	8 (≈ 6.37 µM)	>16	0.5 (≈ 0.398 µM)	2 (≈ 1.59 µM)	>16	>16	–
CCC(C)CC(C)CCCCCCCCC(=O)NC1CC(O)C(OCCOCCOCCOCCOCCOCCOCCOC)NC(=O)C2C(O)CCN2C(=O)C(C(O)CC(N)=O)NC(=O)C(C(O)C(O)c2ccc(O)cc2)NC(=O)C2CC(O)CN2C(=O)C(C(C)O)NC1=O (stereo not shown) [Compound 9]	>16	>16	2 (≈ 1.44 µM)	8 (≈ 5.77 µM)	>16	>16	–
CCC(C)CC(C)CCCCCCCCC(=O)NC1CC(O)C(OCCCCCCOCCOCCOCCOCCOCCOCCOCCOC)NC(=O)C2C(O)CCN2C(=O)C(C(O)CC(N)=O)NC(=O)C(C(O)C(O)c2ccc(O)cc2)NC(=O)C2CC(O)CN2C(=O)C(C(C)O)NC1=O (stereo not shown) [Compound 10]	>16	>16	4 (≈ 2.69 µM)	16 (≈ 10.8 µM)	>16	>16	–
CCCCCOc1ccc(-c2ccc(-c3ccc(C(=O)NC4CC(O)C(OCCOCCOCCOC)NC(=O)C5C(O)C(C)CN5C(=O)C(C(C)O)NC(=O)C(C(O)C(O)c5ccc(O)cc5)NC(=O)C5CC(O)CN5C(=O)C(C(C)O)NC4=O)cc3)cc2)cc1 (stereo not shown) [Compound 20]	–	–	–	–	–	–	Difference from 24-hr control (C. albicans R303; [7]): −3.27*** log10 CFU/kidneys; Mean log10 CFU/kidneys (±SD) (C. albicans R303; [7]): 1.93 ± 0.44 log10 CFU/kidneys
CCCCCOc1ccc(-c2ccc(-c3ccc(C(=O)NC4CC(O)C(OCCOCCO)NC(=O)C5C(O)C(C)CN5C(=O)C(C(C)O)NC(=O)C(C(O)C(O)c5ccc(O)cc5)NC(=O)C5CC(O)CN5C(=O)C(C(C)O)NC4=O)cc3)cc2)cc1 (stereo not shown) [Compound 21]	–	–	–	–	–	–	Difference from 24-hr control (C. albicans R303; [4]): −1.53** log10 CFU/kidneys; Mean log10 CFU/kidneys (±SEM) (C. albicans R303; [4]): 3.35 ± 0.08 log10 CFU/kidneys; Difference from 24-hr control (C. albicans R303; [5]): −2.62*** log10 CFU/kidneys; Mean log10 CFU/kidneys (±SEM) (C. albicans R303; [5]): 2.26 ± 0.12 log10 CFU/kidneys; Difference from 24-hr control (C. albicans R303; [6]): −4.22*** log10 CFU/kidneys; Mean log10 CFU/kidneys (±SEM) (C. albicans R303; [6]): 0.65 ± 0.38 log10 CFU/kidneys; Effect on density of C. albicans in the kidneys compared to the infected controls (C. albicans R303; Third run, all dose levels (0.5, 1.5, 4.5 mg/kg)): significantly reduced the density
CC[C@H](C)C[C@H](C)CCCCCCCCC(=O)N[C@H]1C[C@@H](O)[C@@H](O)NC(=O)[C@@H]2[C@@H](O)CCN2C(=O)[C@H]([C@H](O)CC(N)=O)NC(=O)[C@H]([C@H](O)[C@@H](O)c2ccc(O)cc2)NC(=O)[C@@H]2C[C@@H](O)CN2C(=O)[C@H]([C@@H](C)O)NC1=O [Pneumocandin B0, pneumocandin B0, reference compound] ({Tetradecanoyl(10R,12S-Me2)}-[Orn(4R-OH,5R-OH)]T[Hyp][hTyr(3S-OH,4S-OH)][Gln(3R-OH)][Pro(3S-OH)]; lactam 1-C)	0.25 (≈ 0.235 µM)	4 (≈ 3.76 µM)	1 (≈ 0.939 µM)	0.25 (≈ 0.235 µM)	8 (≈ 7.51 µM)	>16	–
